GI50 and TGI data for 8 compounds are collected here from PubChem BioAssay (NCI).

What all share (experiment): NCI-60 cell line screen, 48 h
The test system of test [1] is OVCAR-5 ovarian.
The test system of test [2] is SF-539 CNS.
In test [3] the test system is HCT-15 colon.
Test [4] has as its system HCC-2998 colon.
Test [5] concerns DU-145 prostate.
Test [6] concerns SK-MEL-28 melanoma.
For test [7], the system named is U251 CNS.
Test [8] deals with SF-295 CNS.
Test [9] concerns RPMI-8226 leukemia.
Test [10] has as its system MDA-MB-435.

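Where inhibition never reached the appropriate level, the endpoint shown equals the highest concentration tested. Otherwise, values were interpolated linearly from a five-concentration, 48-hour dose response in 96-well plates. GI50: concentration for 50% inhibition of growth. At the TGI there is no net growth.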

With `COc1cc(C2CC(c3ccc(Nc4ccnc5cc(Cl)ccc45)cc3)=NN2C=O)cc(OC)c1OC` (stereo unspecified), the GI50 in [1] is 69.2 µM; in test [2], 2.75 µM; in test [3], 3.56 µM; in test [4], 5.52 µM; in test [5], 6.63 µM; in [6], 2.22 µM. Besides, the GI50 was 2.06 µM in test [7], 5.63 µM in test [8], 2.56 µM in [9] and 2.1 µM in [10]. Moreover, the TGI is more than 100 µM in test [1]; 6.38 µM in test [2]; more than 100 µM in test [3]; more than 100 µM in test [4]; more than 100 µM in [5]; 4.81 µM in test [6]. Also, the TGI in test [7] was 4.76 µM; in test [8] it was 27.7 µM; in test [9], 8.63 µM; in test [10], 5.4 µM.

In the case of `O=c1[nH]ccc2nc(-c3ccc(CN4CCC(c5nc(-c6ccccn6)n[nH]5)CC4)cc3)c(-c3ccccc3)cc12`, the GI50 in test [1] was 37.8 µM; in [2], 4.81 µM; in test [3], 16.5 µM; in [4] it was 22.2 µM; in test [5], 22.3 µM; in [6] it was 16.8 µM. Further, the GI50 in test [7] is 13.2 µM; in [8], 1.11 µM; in test [9], 4.85 µM; in [10], 17.4 µM. The TGI was more than 100 µM in [1]; 20.8 µM in test [2]; more than 100 µM in test [3]; more than 100 µM in [4]; more than 100 µM in test [5]; more than 66.1 µM in [6]. The TGI in test [7] is more than 66.6 µM; in [8], 19.9 µM; in test [9], more than 50.2 µM; in [10], more than 100 µM.

In the case of `CC(=O)c1c(O)ccc2c(C)c(C(=O)O)oc12`, the GI50 in test [1] was more than 100 µM; in [2] it was more than 100 µM; in test [3], more than 100 µM; in test [4], 55.8 µM; in test [5] it was more than 100 µM; in test [6], more than 100 µM. Moreover, the GI50 in test [7], in [8], in [9] and in test [10] was more than 100 µM in each case. In addition, the TGI in test [1], in test [2], in test [3], in test [4], in [5] and in test [6] was more than 100 µM in each case. Also, the TGI in test [7], in test [8], in [9] and in test [10] was more than 100 µM throughout.

As to `CC(=O)Nc1ccc2c(c1)C(=O)c1cccc(F)c1-2`, the TGI in [1] is more than 100 µM; in test [2], more than 100 µM; in [3] it was more than 80.1 µM; in test [4], more than 100 µM; in test [5], more than 100 µM; in test [6], more than 100 µM. For the same compound, the TGI in [7], in test [8], in [9] and in test [10] was more than 100 µM throughout. For the same compound, the GI50 in test [4] was more than 100 µM.

Consider `O=C1/C(=C/c2ccc(Cl)cc2)CN(Cc2cn(CCNc3ccnc4cc(Cl)ccc34)nn2)C/C1=C\c1ccc(Cl)cc1`, for which the GI50 in [1] was 0.612 µM; in [2] it was 0.264 µM; in test [3], 0.308 µM; in test [4], 0.246 µM; in test [5], 0.426 µM; in test [6] it was 1.4 µM. For the same compound, the GI50 in [7] is 0.185 µM; in [8] it was 0.222 µM; in [9], 0.272 µM; in test [10] it was 0.326 µM. The TGI in test [1] was found to be 1.62 µM; in test [2], 0.742 µM; in [3], 1.06 µM; in test [4], 0.563 µM; in [5], 1.38 µM; in test [6] it was 2.81 µM. In addition, the TGI in test [7] worked out at 0.391 µM; in test [8], 0.541 µM; in [9] it was 1.05 µM; in test [10], 1.08 µM.

As to `CCN(CC)CCCNc1nc2ccccc2c2c(=O)c3cc(Cl)ccc3sc12`, the GI50 in [1] is 2.25 µM; in test [2] it was 1.73 µM; in test [3] it was 1.61 µM; in test [4], 1.91 µM; in test [5], 2.01 µM; in test [6] it was 1.81 µM. The GI50 in test [7] was 2.04 µM; in [8], 7.96 µM; in test [9], 3.2 µM; in test [10], 1.89 µM. For the same compound, the TGI in [1] is 6.29 µM; in test [2], 3.35 µM; in [3], 3.14 µM; in test [4], 4.01 µM; in test [5] it was 4.13 µM; in test [6], 3.34 µM. Also, the TGI in test [7] worked out at 4.92 µM; in test [8] it was 21.9 µM; in test [9] it was 10.1 µM; in test [10], 3.65 µM.

For `CC(C)=CCc1ccc(O)c(=O)cc1C(C)C`, the GI50 was 3.39 µM in test [1]; 0.764 µM in test [2]; 0.362 µM in test [3]; 0.583 µM in [4]; 0.889 µM in test [5]; 0.917 µM in [6]. Also, the GI50 in [7] is 0.472 µM; in test [8] it was 0.939 µM; in [9] it was 0.673 µM; in test [10], 0.814 µM. Moreover, the TGI in [1] is more than 100 µM; in [2] it was more than 41.1 µM; in [3] it was more than 100 µM; in test [4] it was 29.8 µM; in test [5] it was more than 100 µM; in test [6] it was more than 100 µM. Also, the TGI in test [7] is more than 100 µM; in test [8] it was more than 36.9 µM; in [9], more than 91.3 µM; in [10], more than 100 µM.

Take `CC1CC(C)/C(=N/NC(N)=O)C(C(O)CC2CCC(=O)NC2=O)C1` (stereo unspecified): the GI50 was 3.73 µM in test [1]; 3.07 µM in test [2]; 3.39 µM in [3]; 5.07 µM in [4]; 3.78 µM in [5]; 3.91 µM in [6]. For the same compound, the GI50 was 1.96 µM in test [7], 1.68 µM in [8], 6.77 µM in test [9] and 3.3 µM in test [10]. The TGI in test [1] is 86.2 µM; in test [2], 39.8 µM; in [3], more than 100 µM; in test [4], more than 100 µM; in [5], 52.6 µM; in [6] it was more than 100 µM. The TGI in test [7] was 91.1 µM; in test [8], 13.5 µM; in [9] it was 94.1 µM; in [10], 97 µM.
